Experimental data reported in PubChem BioAssay (NCI).
Where “and” joins values, the source holds several entries; their conditions need not be identical. Identical values can stand only once.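 Five compound concentrations were applied to cells in 96-well plates for 48 hours; endpoints were derived by simple linear interpolation of the resulting dose-response curve. GI50: concentration for 50% inhibition of growth. TGI: total growth inhibition.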

Assays:
Assay in all cases: DTP human tumour cell line panel, 48 h
A549 NSCLC = tested on: A549 NSCLC
CAKI-1 renal = tested on: CAKI-1 renal
EKVX NSCLC = tested on: EKVX NSCLC
HCC-2998 colon = tested on: HCC-2998 colon
HOP-62 NSCLC = tested on: HOP-62 NSCLC
MDA-MB-435 = tested on: MDA-MB-435
OVCAR-3 ovarian = tested on: OVCAR-3 ovarian
SF-268 CNS = tested on: SF-268 CNS
SF-295 CNS = tested on: SF-295 CNS
SK-OV-3 ovarian = tested on: SK-OV-3 ovarian

| Compound | TGI (A549 NSCLC) | TGI (CAKI-1 renal) | TGI (EKVX NSCLC) | TGI (HCC-2998 colon) | TGI (HOP-62 NSCLC) | TGI (MDA-MB-435) | TGI (OVCAR-3 ovarian) | TGI (SF-268 CNS) | TGI (SF-295 CNS) | TGI (SK-OV-3 ovarian) | GI50 (A549 NSCLC) | GI50 (CAKI-1 renal) | GI50 (EKVX NSCLC) | GI50 (HOP-62 NSCLC) | GI50 (MDA-MB-435) | GI50 (OVCAR-3 ovarian) | GI50 (SF-268 CNS) | GI50 (SF-295 CNS) | GI50 (SK-OV-3 ovarian) | GI50 (HCC-2998 colon) |
| --- | --- | --- | --- | --- | --- | --- | --- | --- | --- | --- | --- | --- | --- | --- | --- | --- | --- | --- | --- | --- |
| CCCCCCCCCCCCCCCCSS(C)(=O)=O | > 80.3 µM | 26.1 µM | > 100 µM | > 72.5 µM | > 100 µM | > 100 µM | 31.2 µM | > 35.9 µM | > 100 µM | > 100 µM |  |  |  |  |  |  |  |  |  |  |
| CCC1CCC2C3CC=C4CC(OC(C)=O)C(N)CC4(C)C3CCC12C (centres undefined) | 5.13 µM | 22.9 µM | 13.8 µM | 3.06 µM | 4.47 µM | 5.66 µM | 10.5 µM | 9.08 µM | 8.03 µM | 24.1 µM |  |  |  |  |  |  |  |  |  |  |
| O=c1[nH]ccc2nc(N3CCC(O)CC3)nc(Nc3ccc(N4CCOCC4)cc3)c12 | > 100 µM | > 100 µM | > 100 µM | > 81.2 µM | > 100 µM | > 100 µM | > 100 µM | > 100 µM | > 100 µM | > 100 µM | 3.9 µM | 0.367 µM | > 38.3 µM | 5.32 µM | 0.744 µM | 29.1 µM | 5.94 µM | > 100 µM | 0.59 µM |  |
| O=C(CC(O)c1cccnc1)CC(O)c1cccnc1 (centres undefined) | 47.7 µM | 35.9 µM | 43.8 µM | 28.6 µM | 50.8 µM | 55.3 µM | 28.1 µM | > 95.9 µM | 30.7 µM | 32.6 µM |  |  |  |  |  |  |  |  |  |  |
| CN(C)C(=O)C(NCCO)c1ccccc1 (centres undefined) | > 100 µM | > 100 µM | > 100 µM | > 100 µM | > 100 µM | > 100 µM | > 100 µM | > 100 µM | > 100 µM | > 100 µM |  |  |  |  |  |  |  |  |  |  |
| Cc1cc(NCCCNc2ccnc3cc(Cl)ccc23)nc(Nc2ccc(C(=O)N3CCCCC3)cc2)n1 | 10.4 µM | 7.38 µM | 16 µM | 6.65 µM | 7.43 µM | 3.2 µM | 5.91 µM | 5.11 µM | 3.89 µM | 8.23 µM | 3.56 µM | 2.51 µM | 3.65 µM | 2.4 µM | 1.71 µM | 2.36 µM | 1.91 µM | 2.02 µM | 3.14 µM | 2.47 µM |
| CC[C@]12C=CCN3CC[C@@]4(c5ccc(OC)cc5N(C)[C@H]4[C@@](O)(C(=O)OC)[C@@H]1OC(=O)CCCC[P+](c1ccccc1)(c1ccccc1)c1ccccc1)[C@@H]32 | 10.2 µM | 13.7 µM | 15.8 µM | 2.71 µM | 13.7 µM | 1.31 µM | 2.23 µM | 3.98 µM | 9.04 µM | 5.9 µM | 1.86 µM | 3.61 µM | 0.907 µM | 2.94 µM | 0.359 µM | 0.41 µM | 0.644 µM | 2.65 µM | 0.725 µM | 0.42 µM |
| CS(=O)(=O)OCCCCOS(C)(=O)=O | 243 µM and > 1000 µM | 212 µM and 980 µM | > 1000 µM | 201 µM and > 1000 µM | 244 µM and 983 µM | > 1000 µM | > 1000 µM | 223 µM and > 1000 µM | 237 µM and > 1000 µM | > 1000 µM | 538 µM | 305 µM | > 1000 µM | 492 µM | > 250 µM | > 1000 µM | 424 µM | 423 µM | 804 µM | > 1000 µM |
| CN(C)c1ccc(/C=N/NC(=O)CSc2nc3sc4c(c3c(=O)n2-c2ccccc2)CCCCC4)cc1 | > 100 µM | > 100 µM | > 100 µM | > 100 µM | 20.2 µM | > 100 µM | > 100 µM | > 100 µM | 20.7 µM | 51 µM | 4.25 µM | 5.07 µM | 7.08 µM | 3.21 µM | 5.07 µM | 3.62 µM | 11.5 µM | 3.39 µM | 11.3 µM | 7.5 µM |
| O=c1ncc(I)c[nH]1 | > 100 µM | > 100 µM | > 100 µM | > 100 µM | > 100 µM | > 100 µM | > 100 µM | > 100 µM | > 100 µM | > 100 µM | > 100 µM | > 100 µM | > 100 µM | > 100 µM | > 100 µM | > 100 µM | > 100 µM | > 100 µM | > 100 µM | > 100 µM |
| COC1=CC(=O)c2c(O)c3c(c(O)c2C1=O)OC1(Oc2c(cc4cc(C)oc(=O)c4c2O)CC1O)C3O (centres undefined) | > 100 µM | 53.9 µM | 57 µM | 63.8 µM | > 100 µM | > 100 µM | > 100 µM | > 100 µM | > 100 µM | > 100 µM |  |  |  |  |  |  |  |  |  |  |
| Cc1cc(C)nc(NS(=O)(=O)c2ccc(Nc3nc4nc(NCc5ccccc5)nc(-c5ccc(O)cc5)c4c(=O)[nH]3)cc2)n1 | > 100 µM | > 100 µM | > 100 µM | > 100 µM | > 100 µM | > 100 µM | 29.5 µM | > 100 µM | 95 µM | > 100 µM | 18.9 µM | 57.2 µM | 35.1 µM | > 100 µM | 21.3 µM | 6.18 µM | 18 µM | 16.7 µM | > 100 µM | > 100 µM |
| CCN(CC)c1ccc(CNc2cc(C)nc3ccc(OC)cc23)cc1 | 21.2 µM | 10.5 µM | 15.3 µM | 3.32 µM | 21 µM | 3.38 µM | 12.8 µM | 16.1 µM | 3.89 µM | 22 µM | 6.41 µM | 1.89 µM | 3.14 µM | 7.24 µM | 1.67 µM | 3.12 µM | 4.17 µM | 1.78 µM | 10.3 µM | 1.77 µM |
| COc1ccc(Nc2[nH]n(C3=Nc4ccccc4Sc4ccccc43)c(=O)c2C#N)cc1 | > 100 µM | 1.57 µM | > 100 µM | 10.5 µM | > 100 µM | 3.99 µM | 8.64 µM | 34.3 µM | 4.34 µM | 54.1 µM | 1.62 µM | 0.255 µM | 0.781 µM | 3.06 µM | 1.13 µM | 1.78 µM | 2.37 µM | 0.56 µM | 5.9 µM | 2.32 µM |
